Experiments:
[1] = biological target: NADH:quinone oxidoreductase (NQO), PA1024 (Pseudomonas aeruginosa, UniProt Q9I4V0, Q80E); details: read-out: KBQ; varied NADH; 20 mM KPi, 200 mM NaCl, pH 7.0, 25 °C
[2] = biological target: T1, NADH:quinone oxidoreductase (NQO), PA1024 (Pseudomonas aeruginosa, UniProt Q9I4V0); test: steady-state NADH oxidation at […] nm, ping-pong global fit; assay type: biochemical; details: varied NADH; 20 mM KPi, 200 mM NaCl, pH 7.0, 25 °C; read-out: KBQ
T1 construct: full-length gene PA1024 in pET20b(+), expressed in E. coli Rosetta(DE3)pLysS, purified; EC 1.6.5.9

[3] = biological target: NADH:quinone oxidoreductase (NQO), PA1024 (Pseudomonas aeruginosa, UniProt Q9I4V0, Q80G); details: read-out: KBQ; varied NADH; 20 mM KPi, 200 mM NaCl, pH 7.0, 25 °C
[4] = biological target: T1, NADH:quinone oxidoreductase (NQO), PA1024; test: steady-state NADH oxidation at […] nm, Michaelis-Menten fit; assay type: biochemical; details: 100 μM NADH fixed (not saturating; apparent; unreliable); 20 mM KPi, 200 mM NaCl, pH 7.0, 25 °C
[5] = biological target: T1, NADH:quinone oxidoreductase (NQO), PA1024; test: UV-visible absorption, FMN extraction by heat denaturation; assay type: binding; details: 10 mM Tris-Cl, 200 mM NaCl, 10% glycerol, pH 8.0, 25 °C; stoichiometry of co-purified FMN
[6] = biological target: T1, NADH:quinone oxidoreductase (NQO), PA1024; test: anaerobic stopped-flow flavin reduction at […] nm; assay type: biochemical; details: 20 mM KPi, 200 mM NaCl, pH 7.0, 25 °C, unreliable (upper-bound estimate, saturated at lowest NADH)
[7] = biological target: T1, NADH:quinone oxidoreductase (NQO), PA1024; test: anaerobic flavin reduction, absorption spectra; assay type: biochemical; details: 500 μM NADPH, pH 7, 25 °C, poor substrate

T1 sequence (Q9I4V0 whole entry): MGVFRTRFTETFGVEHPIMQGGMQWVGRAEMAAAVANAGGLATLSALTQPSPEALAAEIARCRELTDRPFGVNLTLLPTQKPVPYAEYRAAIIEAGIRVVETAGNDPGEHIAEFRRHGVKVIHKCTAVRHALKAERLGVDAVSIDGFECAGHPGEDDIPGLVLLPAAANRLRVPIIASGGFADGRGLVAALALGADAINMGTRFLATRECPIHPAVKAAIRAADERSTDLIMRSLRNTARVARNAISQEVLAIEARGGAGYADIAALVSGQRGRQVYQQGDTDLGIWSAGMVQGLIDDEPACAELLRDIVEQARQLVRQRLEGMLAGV
Chain of NADH:quinone oxidoreductase (NQO), PA1024 (Pseudomonas aeruginosa, UniProt Q9I4V0, Q80G) (Q9I4V0 whole entry Q80G): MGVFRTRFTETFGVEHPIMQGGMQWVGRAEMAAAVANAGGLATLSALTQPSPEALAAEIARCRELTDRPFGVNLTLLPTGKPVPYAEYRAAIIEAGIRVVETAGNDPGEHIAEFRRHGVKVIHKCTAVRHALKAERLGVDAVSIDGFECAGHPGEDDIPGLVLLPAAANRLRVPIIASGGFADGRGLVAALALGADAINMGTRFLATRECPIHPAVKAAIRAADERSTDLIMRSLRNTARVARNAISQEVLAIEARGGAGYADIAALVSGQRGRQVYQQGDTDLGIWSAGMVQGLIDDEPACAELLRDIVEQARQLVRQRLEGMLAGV
Chain of NADH:quinone oxidoreductase (NQO), PA1024 (Pseudomonas aeruginosa, UniProt Q9I4V0, Q80E) (Q9I4V0 whole entry Q80E): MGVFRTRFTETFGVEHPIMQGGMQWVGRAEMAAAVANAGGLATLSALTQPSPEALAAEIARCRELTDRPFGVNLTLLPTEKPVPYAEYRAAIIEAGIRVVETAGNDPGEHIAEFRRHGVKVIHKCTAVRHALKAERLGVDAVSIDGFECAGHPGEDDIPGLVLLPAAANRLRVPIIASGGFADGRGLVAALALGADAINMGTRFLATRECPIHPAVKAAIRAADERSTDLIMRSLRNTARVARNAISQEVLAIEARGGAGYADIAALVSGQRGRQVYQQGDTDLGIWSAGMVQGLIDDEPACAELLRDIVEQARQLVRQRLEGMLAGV

Structure (SMILES): O=C1C=CC(=O)C=C1 [1,4-benzoquinone]
- Km [1]: 15 ± 1 µM
- Km [2]: 30 ± 1 µM
- Km [3]: 20 ± 1 µM

Structure (SMILES): COC1=C(OC)C(=O)C(C)=CC1=O [2,3-dimethoxy-5-methyl-1,4-benzoquinone]
- ^app(Km) [4]: 60 ± 1 µM

Structure (SMILES): CC1=CC(=O)C=CC1=O [2-methyl-1,4-benzoquinone]
- ^app(Km) [4]: 96 ± 1 µM

Structure (SMILES): O=C1C=CC(=O)c2c(O)cccc21 [5-hydroxy-1,4-naphthoquinone]
- ^app(Km) [4]: 21 ± 1 µM

Structure (SMILES): Cc1cc2nc3c(=O)[nH]c(=O)nc-3n(C[C@H](O)[C@H](O)[C@H](O)COP(=O)(O)O)c2cc1C [FMN]
- FMN/Protein [5]: 0.40

Structure (SMILES): NC(=O)C1=CN([C@@H]2O[C@H](COP(=O)(O)OP(=O)(O)OC[C@H]3O[C@@H](n4cnc5c(N)ncnc54)[C@H](O)[C@@H]3O)[C@@H](O)[C@H]2O)C=CC1 [NADH]
- Kd (μM) [6]: <= ≤ 3 μM

Structure (SMILES): NC(=O)C1=CN([C@@H]2O[C@H](COP(=O)(O)OP(=O)(O)OC[C@H]3O[C@@H](n4cnc5c(N)ncnc54)[C@H](OP(=O)(O)O)[C@@H]3O)[C@@H](O)[C@H]2O)C=CC1 [NADPH]
- % flavin reduction over 10 min at 500 μM [7]: ~ 10%
